Data set [1] deals with Staphylococcus aureus. The data set is described as follows: Antibacterial activity against Staphylococcus aureus by manual microdilution technique. The data set is classed as functional. On the technique in general: Dilution methods test growth across graded concentrations, often in twofold steps.
A short description of data set [2]: Concentration in Staphylococcus aureus infection-induced aortic valve endocarditis rabbit serum at 20 mg/kg, iv administered every 12 hrs measured 12 hrs after third dose. It counts as ADME, organism-based, Oryctolagus cuniculus. Details: dose 20 mg/kg, route intravenous. As to conditions: read-out: Drug uptake.
Data set [3] in a line: AUC (0 to 12 hrs) in Staphylococcus aureus infection-induced aortic valve endocarditis rabbit at 20 mg/kg, iv administered every 12 hrs measured after seventh dose in presence of Dexamethasone. It counts as ADME, organism-based, Oryctolagus cuniculus. Details: time < 12 hr, dose 20 mg/kg, route intravenous. As to conditions: plasma.
The subject of data set [4] is Staphylococcus aureus. The data set is described as follows: Antibacterial activity against Staphylococcus aureus by Etest. It counts as functional.
Data set [5] deals with Staphylococcus aureus. The experiment in a line: Cardiovascular activity in Staphylococcus aureus infection-induced aortic valve endocarditis rabbit assessed as increase in fractional shortening at 20 mg/kg, iv administered every 12 hrs for 5 days […]. The data set is classed as functional, organism-based. Also noted: dose 20 mg/kg.
For data set [6], the system named is Staphylococcus aureus. The experiment in a line: Antibacterial activity against Staphylococcus aureus infection-induced aortic valve endocarditis in rabbit assessed as number of survival days at 20 mg/kg, iv administered every 12 hrs for 5 days. The data set is classed as functional, Aorta.
Data set [7] relates to Staphylococcus aureus. The experiment in a line: Antibacterial activity against Staphylococcus aureus infection-induced aortic valve endocarditis in rabbit assessed as reduction in bacterial burdens in blood culture at 20 mg/kg, iv administered every 12 hrs for 5 days sacrificed 12 days after last dose. It counts as functional.
Data set [8] concerns Staphylococcus aureus. The data set is described as follows: Antibacterial activity against Staphylococcus aureus infection-induced aortic valve endocarditis in rabbit assessed as reduction in bacterial burdens in heart valve tissue culture at 20 mg/kg, iv administered every 12 hrs for 5 days sacrificed 12 hrs after end of treatment. The data set is classed as functional, Aorta.

The subject of data set [9] is Oryctolagus cuniculus. The data set is described as follows: Toxicity in Staphylococcus aureus infection-induced aortic valve endocarditis rabbit assessed as collagenization median score at 20 mg/kg, iv administered every 12 hrs for 5 days sacrificed 12 days after last dose by histopathology. It counts as organism-based. Also noted: dose 20 mg/kg, route intravenous. As to conditions: in vivo, 288 h.

The test system of data set [10] is Oryctolagus cuniculus. The data set is described as follows: Toxicity in Staphylococcus aureus infection-induced aortic valve endocarditis rabbit assessed as tissue valve damage median score at 20 mg/kg, iv administered every 12 hrs for 5 days sacrificed 12 days after last dose by histopathology. It counts as organism-based. Also noted: dose 20 mg/kg, route intravenous. As to conditions: in vivo.

The nature of data set [11]: AUC (0 to 12 hrs) in Staphylococcus aureus infection-induced aortic valve endocarditis rabbit at 20 mg/kg, iv administered every 12 hrs measured after third dose. It counts as ADME, organism-based, Oryctolagus cuniculus. Also noted: time < 12 hr, dose 20 mg/kg, route intravenous. As to conditions: plasma.
The subject of data set [12] is Oryctolagus cuniculus. The experiment in a line: Toxicity in Staphylococcus aureus infection-induced aortic valve endocarditis rabbit assessed as inflammatory cell infiltration median score at 20 mg/kg, iv administered every 12 hrs for 5 days sacrificed 12 days after last dose by histopathology. The conditions noted are these: in vivo, 288 h. It counts as organism-based. Details: dose 20 mg/kg, route intravenous.

For data set [13], the system named is Staphylococcus aureus. The experiment in a line: Antibacterial activity against Staphylococcus aureus infection-induced aortic valve endocarditis in rabbit assessed as cured animals in blood culture at 20 mg/kg, iv administered every 12 hrs for 5 days sacrificed 12 days after last dose. It counts as functional, organism-based. Also noted: dose 20 mg/kg.
The nature of data set [14]: Concentration in Staphylococcus aureus infection-induced aortic valve endocarditis rabbit serum at 20 mg/kg, iv administered every 12 hrs measured 12hrs after seventh dose in presence of Dexamethasone. The conditions noted are these: read-out: Drug uptake. It counts as ADME, organism-based, Oryctolagus cuniculus. Also noted: dose 20 mg/kg, route intravenous.
Data set [15] relates to Oryctolagus cuniculus. The data set is described as follows: Toxicity in Staphylococcus aureus infection-induced aortic valve endocarditis rabbit assessed as fibrous content median score at 20 mg/kg, iv administered every 12 hrs for 5 days sacrificed 12 days after last dose by histopathology. The data set is classed as organism-based. Also noted: dose 20 mg/kg, route intravenous. The conditions noted are these: in vivo, 288 h.

Data set [16] has as its system Staphylococcus aureus. The experiment in a line: Antibacterial activity against Staphylococcus aureus infection-induced aortic valve endocarditis in rabbit assessed as reduction in bacterial burdens in heart valve tissue culture at 20 mg/kg, iv administered every 12 hrs for 5 days sacrificed 12 days after last dose. It counts as functional, Aorta.
A short description of data set [17]: AUC (0 to 12 hrs) in Staphylococcus aureus infection-induced aortic valve endocarditis rabbit at 20 mg/kg, iv administered every 12 hrs measured after seventh dose. Details: time < 12 hr, dose 20 mg/kg, route intravenous. The conditions noted are these: plasma. The data set is classed as ADME, organism-based, Oryctolagus cuniculus.
In data set [18] the test system is Staphylococcus aureus. The experiment in a line: Antibacterial activity against Staphylococcus aureus at 0.5 mg/liter by time kill assay. It counts as functional.
Data set [19] relates to Staphylococcus aureus. The experiment in a line: Antibacterial activity against Staphylococcus aureus infection-induced aortic valve endocarditis in rabbit assessed as reduction in bacterial burdens in blood culture at 20 mg/kg, iv administered every 12 hrs for 5 days sacrificed 12 hrs after end of treatment. It counts as functional.
Data set [20] is described as follows: Drug level in Staphylococcus aureus infection-induced aortic valve endocarditis rabbit serum at 20 mg/kg, iv administered every 12 hrs measured 12 hrs after seventh dose. Also noted: dose 20 mg/kg, route intravenous. The conditions noted are these: read-out: Drug uptake. It counts as ADME, organism-based, Oryctolagus cuniculus.
For data set [21], the system named is Oryctolagus cuniculus. The experiment in a line: Toxicity in Staphylococcus aureus infection-induced aortic valve endocarditis rabbit assessed as calcification median score at 20 mg/kg, iv administered every 12 hrs for 5 days sacrificed 12 days after last dose by histopathology. The data set is classed as organism-based. Also noted: dose 20 mg/kg, route intravenous. The conditions noted are these: in vivo, 288 h.

Data set [22] is described as follows: Drug level in Staphylococcus aureus infection-induced aortic valve endocarditis rabbit serum at 20 mg/kg, iv administered every 12 hrs measured 30 mins after seventh dose. The data set is classed as ADME, organism-based, Oryctolagus cuniculus. Also noted: dose 20 mg/kg, route intravenous. As to conditions: read-out: Drug uptake.
A short description of data set [23]: Concentration in Staphylococcus aureus infection-induced aortic valve endocarditis rabbit serum at 20 mg/kg, iv administered every 12 hrs measured 30 mins after third dose. The data set is classed as ADME, organism-based, Oryctolagus cuniculus. Also noted: dose 20 mg/kg, route intravenous. As to conditions: read-out: Drug uptake.
Data set [24] has as its system Staphylococcus aureus. The data set is described as follows: Antibacterial activity against Staphylococcus aureus infection-induced aortic valve endocarditis in rabbit assessed as cured animals in blood culture at 20 mg/kg, iv administered every 12 hrs for 5 days sacrificed 12 hrs after end of treatment. Details: dose 20 mg/kg. It counts as functional, organism-based.

Data set [25] in a line: Concentration in Staphylococcus aureus infection-induced aortic valve endocarditis rabbit serum at 20 mg/kg, iv administered every 12 hrs measured 30 mins after seventh dose in presence of Dexamethasone. The data set is classed as ADME, organism-based, Oryctolagus cuniculus. As to conditions: read-out: Drug uptake. Details: dose 20 mg/kg, route intravenous.

SMILES strings stand for the structures. Converted amounts (≈) assume the structure as drawn. The source made the active and inactive calls. Bounds are passed on as bounds.

As usually defined, the MBC is the smallest concentration meeting the test's criterion for killing. The low end stands for more potent killing, the high end for less potent killing. The term MIC denotes the lowest concentration that inhibits growth of the organism. As to `CC1(C)S[C@@H]2[C@H](NC(=O)[C@H](N)c3ccc(O)cc3)C(=O)N2[C@H]1C(=O)O` [AMOXICILLIN], in the data set with Staphylococcus aureus [1], the MBC came out at 4 µg/mL (≈ 10.9 µM) and the MIC stood at 2 µg/mL (≈ 5.47 µM).
One may read the AUC as the area under the concentration-time curve, a measure of exposure. On to `COc1c(N2C[C@@H]3CCCN[C@@H]3C2)c(F)cc2c(=O)c(C(=O)O)cn(C3CC3)c12` [MOXIFLOXACIN], for which the concentration at 12 h in data set [2] turned out to be 230 ng/mL; in [14], 1000 ng/mL; in [20], 510 ng/mL. For the same compound, the AUC at 12 h in data set [3] is 23900 ng·h/mL; in data set [11] it was 16500 ng·h/mL; in data set [17] it was 22200 ng·h/mL. Further, the MIC in the data set with Staphylococcus aureus [4] came to 0.064 µg/mL (≈ 0.159 µM); against Staphylococcus aureus [1] it was 0.125 µg/mL (≈ 0.311 µM). Further, the outcome with Staphylococcus aureus [5], with Staphylococcus aureus [13] and in the data set on Staphylococcus aureus [24] was Active. In the data set with Staphylococcus aureus [6], the Survival turned out to be 15.3 days. The log10CFU/ml with Staphylococcus aureus [7] is 2.76 log10 CFU/ml; in the data set with Staphylococcus aureus [18], more than 3; in the data set on Staphylococcus aureus [19], 2.83. Moreover, the log10CFU/g is given as 2.1 in the data set on Staphylococcus aureus [8] and 2.2 with Staphylococcus aureus [16]. The Activity was 2 with Oryctolagus cuniculus [9]; 2.3 with Oryctolagus cuniculus [10]; 1.2 with Oryctolagus cuniculus [12]; 1.6 in the data set on Oryctolagus cuniculus [15]; 1.6 in the data set with Oryctolagus cuniculus [21]. The compound also showed an MBC against Staphylococcus aureus [1] of 0.125 µg/mL (≈ 0.311 µM). Besides, the results for the concentration at 0.5 h in data set [22], in data set [23] and in data set [25] were 4390 ng/mL, 3730 ng/mL and 3330 ng/mL, respectively.
In the data set with Staphylococcus aureus [1], `Cc1onc(-c2ccccc2)c1C(=O)N[C@@H]1C(=O)N2[C@@H]1SC(C)(C)[C@@H]2C(=O)O` [OXACILLIN] returned a minimum bactericidal concentration (MBC) of 0.5 µg/mL (≈ 1.25 µM) and an MIC not above 0.25 µg/mL.

For the origin of these results see ChEMBL document CHEMBL1155768, “Dexamethasone as adjuvant therapy to moxifloxacin attenuates valve destruction in experimental aortic valve endocarditis due to Staphylococcus aureus” (Antimicrob Agents Chemother, 2007).
